For data set [1] the following is noted: after a single administration; cited from earlier work.
Data set [2] concerns Raji-luc B lymphoma cells. The data set can be described thus: Drug delivery study in Raji B cell lymphoma model (survival, bioluminescence, kidney histology). Format: in vivo, NSG mice. Here is the method:
Drug delivery study and histology: NSG male mice (7 weeks) were inoculated with 1×10^6 Raji-luc cells intravenously. […] For the first study, dosing started on day 3 and drugs/drug delivery system were injected i.p. every 4 days for a total of 6 injections. For the second study, dosing started on day 11 and drugs/drug delivery system were injected i.p. every 4 days for a total of 3 injections. For both studies, weekly bioluminescence imaging using the IVIS Spectrum was used to monitor lymphoma progression. […] Tissues were harvested for histology using H&E staining to show tumor burden or lack thereof.
Male NSG mice were injected intravenously with luciferase expressing Raji cells and monitored for lymphoma engraftment and progression using bioluminescence imaging. Tumor engrafted mice were randomly assigned to the treatment groups (n=5).
The MMAE dose was selected based on the fact that the known maximum tolerated dose (MTD) of free MMAE is 0.25-0.5 mg kg^−1 after a single administration. A dose of 0.125 mg/kg was chosen to allow for multiple treatments. Mice injected intravenously with Raji cells develop hind leg paralysis (due to the infiltration of neoplastic cells into the spinal canal) and/or lose weight prior to death. Therefore, hind leg paralysis or >15% loss in body weight were considered experimental endpoints at which mice were euthanized.

The next data set relates to Raji cells. The following applies: read-out: IC50 (cytotoxicity), 72 hours.
Another data set has as its system Daudi cells. The following applies: read-out: IC50 (cytotoxicity), 72 hours.
A further data set relates to normal donor B cells. The following applies: normal B cells from healthy human donor, 72 hours.

Molecules are shown by their SMILES. *1 amine or outer side, *2 acyl side, *3 side chain or, on linkers, in order; H or OH if unused. Where a SMILES comes first, the peptide text is derived from it. [ ]: non-standard residue; d: D form. The star is where a group is joined. Dolaproine = CO[C@@H]([C@@H]1CCCN1)[C@@H](C)C(=O)O; Hexanoyl(6-maleimido) = O=C1C=CC(=O)N1CCCCCC(=O)*; Dil = CC[C@H](C)[C@H](NC)[C@@H](CC(=O)O)OC; PABC = O=C(OCc1ccc(N[*:1])cc1)[*:2]; X1 = C[C@@H](N*)[C@@H](O)c1ccccc1; Cit = NC(=O)NCCC[C@H](N)C(=O)O; NMeV = CN[C@H](C(=O)O)C(C)C

Experimental for Daudi cells: (§1) Cell viability and proliferation in cell lines were estimated using a resazurin based assay (Prestoblue, Thermo Scientific). Cell viability in healthy B cells was measured using 7-AAD (Cayman Chemical Company, Ann Harbor, Mich.) cell exclusion using flow cytometric analysis gated on the B cell fraction (CD19-PE, BD Biosciences, Franklin Lakes, N.J.).
Experimental for Raji cells: as §1
Experimental for normal donor B cells: as §1

In the case of `CC[C@H](C)[C@@H]([C@@H](CC(=O)N1CCC[C@H]1[C@H](OC)[C@@H](C)C(=O)N[C@H](C)[C@@H](O)c1ccccc1)OC)N(C)C(=O)[C@@H](NC(=O)[C@@H](NC)C(C)C)C(C)C` [MMAE, (S)-N-((3R,4S,5S)-1-((S)-2-((1R,2R)-3-(((1S,2R)-1-hydroxy-1-phenylpropan-2-yl)amino)-1-methoxy-2-methyl-3-oxopropyl)pyrrolidin-1-yl)-3-methoxy-5-methyl-1-oxoheptan-4-yl)-N,3-dimethyl-2-((S)-3-methyl-2-(methylamino)butanamido)butanamide] (H-[NMeV]V[Dil][Dolaproine]-X1), the “maximum tolerated dose (MTD)” value in data set [1] is 0.25 to 0.5 mg/kg. Besides, the “histological analysis of kidney sections, lymphoma cell infiltration” value in data set [2] (H&E, PVX and MMAE mice when moribund, PVX-vcMMAE mice at end of study period) was “reduced lymphoma cell infiltration”. Further, the “lymphoma progression by bioluminescence imaging” value in data set [2] (first study: 6 i.p. injections every 4 days from day 3) is “partially limited lymphoma progression”. For the same compound, the median survival worked out at 61 days in data set [2] (first study: 6 i.p. injections every 4 days from day 3, MMAE 0.125 mg/kg, PVX-vcMMAE 0.4 mg/kg, PVX 1 mg, PBS 45 days) and 39 days in data set [2] (second study: 3 i.p. injections every 4 days from day 11, PBS 42 days).

Usually IC50 stands for the concentration at which inhibition is half-maximal. With `CC[C@H](C)[C@@H]([C@@H](CC(=O)N1CCC[C@H]1[C@H](OC)[C@@H](C)C(=O)N[C@H](C)[C@@H](O)c1ccccc1)OC)N(C)C(=O)[C@@H](NC(=O)[C@H](C(C)C)N(C)C(=O)OCc1ccc(NC(=O)[C@H](CCCNC(N)=O)NC(=O)[C@@H](NC(=O)CCCCCN2C(=O)C=CC2=O)C(C)C)cc1)C(C)C` [vcMMAE] ({Hexanoyl(6-maleimido)}-V[Cit][PABC][NMeV]V[Dil][Dolaproine]-X1), the IC50 in the data set with Raji cells was determined as 160 nM; with Daudi cells, 80 nM. Also, the “cytotoxicity towards non-dividing normal donor B cells” value with normal donor B cells was “no cytotoxicity”.

These data come from patent publication US20220145316A1, “CANCER IMMUNOTHERAPY” (priority 2019, published 2022).
